# Measurements from patent US9255100B2 (BAYER INTELLECTUAL PROPERTY GMBH, priority 2010, dated 2016).
# Biological target: T1, N-terminally GST-tagged human full length recombinant Mps-1 kinase (Homo sapiens, UniProt P33981)
# T1 construct: N-terminally GST-tagged human full length recombinant Mps-1 kinase; purchased Invitrogen, Karslruhe, Germany PV4071
# T1 sequence (P33981 1-857): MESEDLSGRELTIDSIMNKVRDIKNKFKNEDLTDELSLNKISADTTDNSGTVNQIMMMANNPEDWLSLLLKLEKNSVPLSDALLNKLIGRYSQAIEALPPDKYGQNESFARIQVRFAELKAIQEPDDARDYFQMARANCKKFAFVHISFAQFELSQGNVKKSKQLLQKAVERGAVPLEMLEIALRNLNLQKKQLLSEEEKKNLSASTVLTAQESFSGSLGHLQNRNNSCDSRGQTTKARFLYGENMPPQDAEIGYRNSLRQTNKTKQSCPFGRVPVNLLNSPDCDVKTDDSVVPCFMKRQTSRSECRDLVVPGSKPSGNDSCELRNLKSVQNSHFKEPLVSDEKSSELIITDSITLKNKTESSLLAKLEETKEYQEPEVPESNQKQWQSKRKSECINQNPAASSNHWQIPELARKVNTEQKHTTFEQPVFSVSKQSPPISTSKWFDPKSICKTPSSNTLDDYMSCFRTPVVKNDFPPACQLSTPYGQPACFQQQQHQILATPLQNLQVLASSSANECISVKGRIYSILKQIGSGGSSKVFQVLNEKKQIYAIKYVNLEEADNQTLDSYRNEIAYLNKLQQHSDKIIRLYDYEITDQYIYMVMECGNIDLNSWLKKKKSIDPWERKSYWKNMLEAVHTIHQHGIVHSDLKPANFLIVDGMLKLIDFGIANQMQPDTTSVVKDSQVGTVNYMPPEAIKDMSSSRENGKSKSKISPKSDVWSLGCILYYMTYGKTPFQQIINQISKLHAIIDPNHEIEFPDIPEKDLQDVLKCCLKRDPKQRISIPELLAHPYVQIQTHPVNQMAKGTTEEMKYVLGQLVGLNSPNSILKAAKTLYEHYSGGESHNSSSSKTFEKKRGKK
# Assay: Mps-1 kinase assay (TR-FRET)
# Assay type: biochemical
# Conditions: Mps1 IC50 [nM], 10 μM ATP, 1 μM peptide substrate, 60 min at 22° C.
# How it was run: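 TR-FRET signal between a Europium anti-phospho-Ser/Thr antibody and streptavidin-XLent reported phosphorylation of a biotinylated peptide by GST-tagged full-length Mps-1. Enzyme was near 1 nM final, chosen per lot for linearity.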
row,IC50 [nM],Compound
1,73.8,"Cc1cc(-c2cnc3c(NCC(C)(C)O)cc(Oc4ccccn4)nn23)ccc1C(=O)NC1CC1 [Example 274, N-cyclopropyl-4-{8-[(2-hydroxy-2-methylpropyl)amino]-6-(pyridin-2-yloxy)imidazo[1,2-b]pyridazin-3-yl}-2-methylbenzamide]"
2,172,"CNC(=O)c1ccc(-c2cnc3c(NCC(C)C)cc(Cl)nn23)cc1 [Example 178, 4-{6-Chloro-8-[(2-methylpropyl)amino]imidazo[1,2-b]pyridazin-3-yl}-N-methylbenzamide]"
3,1.3,"Cc1ccc(Cl)cc1Nc1cc(NCCCC(F)(F)F)c2ncc(-c3ccc(C(=O)NC4CC4)c(C)c3)n2n1 [Example 451, 4-{6-[(5-chloro-2-methylphenyl)amino]-8-[(4,4,4-trifluorobutyl)amino]imidazo[1,2-b]pyridazin-3-yl}-N-cyclopropyl-2-methylbenzamide]"
4,0.7,"CNc1cc(Oc2cccc(F)c2F)nn2c(-c3ccc(C(=O)NC4CC4)c(C)c3)cnc12 [Example 528, N-cyclopropyl-4-[6-(2,3-difluorophenoxy)-8-(methylamino)imidazo[1,2-b]pyridazin-3-yl]-2-methylbenzamide]"
5,2.6,"Cc1cc(-c2cnc3c(NCC(C)C)cc(S(=O)(=O)c4ccccc4)nn23)ccc1C(=O)NC1CC1 [Example 198, N-cyclopropyl-2-methyl-4-{8-[(2-methylpropyl)amino]-6-(phenylsulfonyl)imidazo[1,2-b]pyridazin-3-yl}benzamide]"
6,0.6,"Cc1cc(-c2cnc3c(NCCC(F)(F)F)cc(Oc4cccc(OC(C)C)c4)nn23)ccc1C(=O)NC1CC1 [Example 381, N-cyclopropyl-2-methyl-4-{6-[3-(propan-2-yloxy)phenoxy]-8-[(3,3,3-trifluoropropyl)amino]imidazo[1,2-b]pyridazin-3-yl}benzamide]"
7,< 1,"CC(C)CNc1cc(-c2ccnn2C)nn2c(-c3ccc(C(=O)NC4CC4)cc3)cnc12 [Example 137, N-cyclopropyl-4-{8-[(2-methylpropyl)amino]-6-(1-methyl-1H-pyrazol-5-yl)imidazo[1,2-b]pyridazin-3-yl}benzamide]"
8,1.2,"Cc1cc(-c2cnc3c(NCC(C)(C)O)cc(Nc4cccnc4)nn23)ccc1C(=O)NC1CC1 [Example 359, N-cyclopropyl-4-{8-[(2-hydroxy-2-methylpropyl)amino]-6-(pyridin-3-ylamino)imidazo[1,2-b]pyridazin-3-yl}-2-methylbenzamide]"
9,0.1,"Cc1cc(-c2cnc3c(NCCC(C)(C)O)cc(Oc4cccc(F)c4)nn23)ccc1C(=O)NC1CC1 [Example 325, N-cyclopropyl-4-{6-(3-fluorophenoxy)-8-[(3-hydroxy-3-methylbutyl)amino]imidazo[1,2-b]pyridazin-3-yl}-2-methyl-benzamide]"
10,< 1,"Cc1cc(-c2cnc3c(NCCC(F)(F)F)cc(-c4ccc(F)cc4)nn23)ccc1C(=O)NC1CC1 [Example 28, N-cyclopropyl-4-{6-(4-fluorophenyl)-8-[(3,3,3-trifluoropropyl)amino]imidazo[1,2-b]pyridazin-3-yl}-2-methylbenzamide]"
11,0.5,"Cc1cc(-c2cnc3c(NCC(C)(C)O)cc(Nc4ccc(F)c(F)c4)nn23)ccc1C(=O)NC1CC1 [Example 307, N-cyclopropyl-4-{6-[(3,4-difluorophenyl)amino]-8-[(2-hydroxy-2-methylpropyl)amino]imidazo[1,2-b]pyridazin-3-yl}-2-methylbenzamide]"

# The remaining lines, values behind:
row,Compound,IC50 [nM]
1,"FC(F)(F)CCNc1cc(-c2ccncc2)nn2c(-c3ccc(-c4cnc(C5CC5)[nH]4)cc3)cnc12 [Example 26, 3-[4-(2-Cyclopropyl-1H-imidazol-5-yl)phenyl]-6-(pyridin-4-yl)-N-(3,3,3-trifluoropropyl)imidazo[1,2-b]pyridazin-8-amine]",4.1
2,"Cc1cc(-c2cnc3c(NCCC(F)(F)F)cc(Nc4cccnc4)nn23)ccc1C(=O)NC1CC1 [Example 439, N-cyclopropyl-2-methyl-4-{6-(pyridin-3-ylamino)-8-[(3,3,3-trifluoropropyl)amino]imidazo[1,2-b]pyridazin-3-yl}benzamide]",0.2
3,"Cc1cc(-c2cnc3c(NCCC(F)(F)F)cc(Sc4ccccc4)nn23)ccc1C(=S)NC1CC1 [Example 84, N-cyclopropyl-2-methyl-4-{6-(phenylsulfanyl)-8-[(3,3,3-trifluoropropyl)amino]imidazo[1,2-b]pyridazin-3-yl}benzenecarbothioamide]",0.3
4,"Cc1cc(Oc2cc(NCC(C)(C)O)c3ncc(-c4ccc(C(=O)NC5CC5)c(C)c4)n3n2)n[nH]1 [Example 415, N-cyclopropyl-4-{8-[(2-hydroxy-2-methylpropyl)amino]-6-[(5-methyl-1H-pyrazol-3-yl)oxy]imidazo[1,2-b]pyridazin-3-yl}-2-methylbenzamide]",8.2
5,"Cc1cccc(Oc2cc(NCCC(F)(F)F)c3ncc(-c4ccc(C(=O)NC5CC5)c(C)c4)n3n2)c1 [Example 470, N-cyclopropyl-2-methyl-4-{6-(3-methylphenoxy)-8-[(3,3,3-trifluoro-propyl)amino]imidazo [1,2-b]pyridazin-3-yl} benzamide]",0.4
6,"Cc1cc(-c2cnc3c(NCCC(F)(F)F)cc(Sc4cnccn4)nn23)ccc1C(=O)NC1CC1 [Example 420, N-cyclopropyl-2-methyl-4-{6-(pyrazin-2-ylsulfanyl)-8-[(3,3,3-trifluoropropyl)amino]imidazo[1,2-b]pyridazin-3-yl}benzamide]",2.8
7,"COc1ccc(Oc2cc(NCCS(C)(=O)=O)c3ncc(-c4ccc(C(=O)NC5CC5)c(C)c4)n3n2)c(F)c1 [Example 519, N-cyclopropyl-4-[6-(2-fluoro-4-methoxyphenoxy)-8-{[2-(methylsulfonyl)ethyl]amino]imidazo [1,2-b]pyridazin-3-yl]-2-methylbenzamide]",0.1
8,"Cc1cc(F)cc(Sc2cc(NCC3CCSCC3)c3ncc(-c4ccc(C(=O)NC5CC5)c(C)c4)n3n2)c1 [Example 286, N-cyclopropyl-4-{6-[(3-fluoro-5-methylphenyl)sulfanyl]-8-[(tetrahydro-2H-thiopyran-4-ylmethyl)amino]imidazo[1,2-b]pyridazin-3-yl}-2-methylbenzamide]",0.4
9,"Cc1cc(-c2cnc3c(NCCS(C)(=O)=O)cc(Oc4cccc(F)c4)nn23)ccc1C(=O)NC1CC1 [Example 313, N-cyclopropyl-4-[6-(3-fluorophenoxy)-8-{[2-(methylsulfonyl)ethyl]amino}imidazo[1,2-b]pyridazin-3-yl]-2-methyl-benzamide]",0.1
10,"Cc1cc(-c2cnc3c(NCC(C)(C)O)cc(O[C@H]4CCNC4=O)nn23)ccc1C(=O)NC1CC1 [Example 263, N-cyclopropyl-4-(8-[(2-hydroxy-2-methylpropyl)amino]-6-{[(3S)-2-oxopyrrolidin-3-yl]oxy}imidazo[1,2-b]pyridazin-3-yl)-2-methylbenzamide]",32.4
11,"Cc1cc(-c2cnc3c(NCC(C)(C)O)cc(Oc4cnn(C)c4)nn23)ccc1C(=O)NC1CC1 [Example 321, N-cyclopropyl-4-{8-[(2-hydroxy-2-methylpropyl)amino]-6-[(1-methyl-1H-pyrazol-4-yl)oxy]imidazo[1,2-b]pyridazin-3-yl}-2-methylbenzamide]",0.6
